Assay results: patent US20120196748A1, “PESTICIDAL COMPOSITION” (SYNGENTA LIMITED, priority 2009, published 2012)

How the values were obtained:
[1] = Soil mobility of herbicides, uptake by concentric PDMS rings; format: physicochemical; conditions: 7 days after application, sandy loam soil, moisture content 26.3%
Experimental: The soil mobility of various herbicides were examined in sandy loam soil with a moisture content of 26.3%. Three concentric PDMS (polydimethyl siloxane) rings having diameters of 2, 4 and 6 cm, respectively were placed in the soil at three different depths at 0.5 cm apart. 1 ml of a herbicide solution is injected in the center of the rings. The uptake of the herbicide by the rings were analysed 7 days after herbicide application.

weeds = test: Field weed control by clomazone-treated wheat seeds; format: in vivo; conditions: field at Möhlin, 64 days after planting
Experimental: Two different types of wheat seeds were used, i.e. Match and Steme. The treated wheat seeds were sown in the field (at Möhlin in Swtzerland). 64 days after planting the control of weeds was analysed.

[2] = uptake by PDMS ring of 2 cm diameter
[3] = uptake by PDMS ring of 4 cm diameter

Compound	Percentage of totally applied herbicide (%) [1, 2] [%]	Weed control (%) (weeds; wheat seed type Match)	Weed control (%) (weeds; wheat seed type Steme)	Percentage of totally applied herbicide (%) [1, 3] [%]	Percentage of totally applied herbicide (%) ([1]; uptake by PDMS ring of 6 cm diameter)
CCOCN(C(=O)CCl)c1c(C)cccc1CC [Acetochlor]	0.14	–	–	–	–
CC1(C)CON(Cc2ccccc2Cl)C1=O [Clomazone]	0.36	95	95	–	–
CCCN(CCC)C(=O)SCC [EPTC]	12.70	–	–	5.56	0.97
CCc1cccc(C)c1N(C(=O)CCl)[C@@H](C)COC [S-metalochlor]	0.11	–	–	–	–
CCCN(CCC)c1c([N+](=O)[O-])cc(C(F)(F)F)cc1[N+](=O)[O-] [Trifluralin]	0.62	–	–	0.02	–
